Reference: publication PMC8962522, “Direct interaction of TrkA/CD44v3 is essential for NGF-promoted aggressiveness of breast cancer cells” (Journal of Experimental & Clinical Cancer Research : CR, 2022)

System: TrkA in MDA-MB-231 cells
Assay: Immunofluorescence, membrane TrkA
Format: cell-based
Conditions: MDA-MB-231, immunofluorescence/confocal, NGF; "same trend" = as CD44v3: increased until 15 min and then decreased
Excerpt: The CD44v3- and CD44v6-containing isoforms expressing respectively exon 8 and 11(Fig. 1A) can interact with growth factor receptors. Using COS-7 cells with low CD44 and TrkA expression (Supplementary Fig. 1A-D), we differentially expressed TrkA and CD44s or a CD44 variant, either CD44v3 or CD44v6 (Fig. 1B, supplementary Fig. 2). […] Additionally, we evaluated the expression of TrkA and CD44v3 at the membrane level or in cells by immunofluorescence in MDA-MB-231 cells.
Supplementary file 13046_2022_2314_MOESM3_ESM.pdf: Additional file 3: Supplementary Figure 1. Validation of the ectopic expression of CD44 and/or TrkA in COS-7 cells. The expression of all CD44 isoforms (A), CD44 variant 3 (B), CD44 variant 6 (C) and TrkA ([…]; D) was evaluated by RT–qPCR (normalized using PUM-1). No expression of CD44, CD44 variants [3 or 6] or TrkA was detected in COS-7 cells (A-D) compared with that in cells transfected with the expression plasmid carrying each protein. […] Quantification of the PLA results was performed using ImageJ software (30 randomly chosen fields per condition of three different experiments). […] CD44v3 and CD44v6 levels at the plasma membrane were assessed by flow cytometry (A-D). The plasma membrane and total TrkA and CD44v3 levels were also quantified by confocal microscopy (E-H). […] The CD44v3/NGF interaction was evaluated using microscale thermophoresis (MST). […]

Substance: NGF: recombinant human β-NGF (Alomone Labs, Israel)
- level of TrkA at the membrane (in words): the membrane level of TrkA followed the same trend
